From patent US12031897B2, “Target-locking single-molecule nanoscopy” (Memorial Sloan Kettering Cancer Center, priority 2019, dated 2024)
Entries after “also recorded” stand apart in the source; their conditions may differ.

What was measured:
[1] = system: Cdk9 foci at the Pou5f1 locus; assay: Cdk9 cluster signal at Pou5f1 upon inhibition (live-cell confocal/STED scans); assay type: cell-based, mouse; settings: for Cdk9 signal at Pou5f1 upon inhibition: 1 μM JQ1 (within 1 min) or 10 μM Flavopiridol
Excerpt: If rapid Pou5f1 shut-down reflects significant Cdk9 portion being recruited through Brd4-acetylated histone recognition, both Brd4 and Cdk9 clustering would dissipate upon JQ1 inhibition. […] Cdk9/Med22 focal accumulation appears to be stabilized through highly-specific molecular recognition-multiple Brd4 molecules binding to multiple acetylated targets throughout the heavily modified Pou5f1 enhancer region—rather than possibly less-selective physicochemical forces, e.g. driven by low-complexity protein domains and RNA.
(§1) For real-time confocal and STED imaging, example implementations may program the wave generator to scan 2 μm×2 μm or 1 μm×1 μm xy areas in 0.8 sec or 0.2 sec respectively. 3D scanning was performed (via, e.g., detection system 150) by acquiring 5 xy scans while moving the stage by 0.5 μm in z between scans. TTL pulses corresponding to single-photon events from the APDs, together with the trigger pulses from the wave generator were detected using a field-programmable gate array (FPGA) data acquisition system (National Instruments, PCIe-7852R).
(§2) Before imaging, cells were seeded onto 8-chamber coverglass (LabTek, 155411) coated with 5 μg/ml laminin (BioLamina LN511), in −2i media (OMG) or +2i media (NMG) and appropriate drugs. For SiR staining, cells were labeled with media containing 0.3 μM SiR-BG for 10 mins, at 37° C., followed by three washes with new media.
(§3) To generate OMG SNAP-Cdk9 targeted cells, OMG-1 mESCs (1×106) were transfected with 10 μg SNAP-Cdk9 donor vector and 0.6 μg espCas9-gRNA-Cdk9 vector. 10 days after transfection, the cells were trypsinized, labeled with SiR-BG and subjected to FACS, generating a first-round SiR-positive pool. This pool was then expanded, stained with SiR-BG and subjected to second FACS round and individual clones were picked and expanded.

[2] = molecular target: T1, Brd4 foci at the Pou5f1 locus (Mus musculus, UniProt Q9ESU6); assay: Brd4 cluster signal at Pou5f1 upon inhibition (live-cell confocal/STED scans); assay type: cell-based; settings: for Brd4 signal at Pou5f1 upon inhibition: 1 μM JQ1 (within 1 min) or 10 μM Flavopiridol
T1 construct: integrating a SNAP-tag at the N-terminus of the endogenous Brd4; endogenous in cells; host or cells: mouse ESCs OMG-1, homozygous SNAP-Brd4 knock-in clone 9 (printed as 'OMG SNAP-Cdk9 clone 9')
Procedure: as §1, §2
as §3, with “OMG or NMG SNAP-Brd4” for “OMG SNAP-Cdk9”, “OMG-1 or NMG” for “OMG-1”, “μg SNAP-Brd4” for “μg SNAP-Cdk9”, “μg espCas9-gRNA-Brd4” for “μg espCas9-gRNA-Cdk9”

[3] = system: Sox2 foci at the Pou5f1 locus; assay: Sox2 cluster signal at Pou5f1 upon inhibition (live-cell confocal/STED scans); assay type: cell-based, mouse; settings: 1 μM JQ1 or 10 μM Flavopiridol
Excerpt: Contrary to Brd4, Med22 and Cdk9, Sox2 clustering persists through transcription inhibition by either JQ1 or FVP (FIG. 8D). The differential sensitivities between factors and modes of transcription inhibition unveil a hierarchy of molecular transactions that control Pou5f1 transcription: Sox2 binding occurs upstream of Cdk9/Med22/Brd4 recruitment and accumulation of all of 4 regulatory factors occurs upstream of Pol II release into productive elongation. […] For real-time confocal and STED imaging, example implementations may program the wave generator to scan 2 μm×2 μm or 1 μm×1 μm xy areas in 0.8 sec or 0.2 sec respectively. 3D scanning was performed (via, e.g., detection system 150) by acquiring 5 xy scans while moving the stage by 0.5 μm in z between scans. TTL pulses corresponding to single-photon events from the APDs, together with the trigger pulses from the wave generator were detected using a field-programmable gate array (FPGA) data acquisition system (National Instruments, PCIe-7852R). Before imaging, cells were seeded onto 8-chamber coverglass (LabTek, 155411) coated with 5 μg/ml laminin (BioLamina LN511), in -2i media (OMG) or +2i media (NMG) and appropriate drugs. For SiR staining, cells were labeled with media containing 0.3 μM SiR-BG for 10 mins, at 37° C., followed by three washes with new media. Targeted integration of SNAP-tag in the endogenous Sox2, Cdk9, Brd4 and Med22 genes. To generate OMG or NMG SNAP-Sox2 targeted cells, OMG-1 or NMG mESCs (1×106) were transfected with 10 μg SNAP-Sox2 donor vector and 0.6 μg […] vector. 10 days after transfection, the cells were trypsinized, labeled with 0.3 μM SiR-BG for 10 mins, rinsed three times with new media, followed by immediate fluorescence-activated cell sorting (FACS). All the SiR-positive cells were collected, expanded for 2 weeks, trypsinized, labeled with SiR-BG and sorted again. Almost 100% SNAP positive pools were obtained from the second round of sorting and individual clones were picked and expanded. Homozygous clones (dubbed “OMG SNAP-Sox2 clone 8” and NMG SNAP-Sox2 clone 3'' respectively) with both Sox2 alleles correctly targeted with SNAP-tag integrations and that show SiR nuclear staining were selected for all further experiments.

SMILES | Cdk9 signal at Pou5f1 upon inhibition [1] | Hill equation n, relative Cdk9 signal vs. [JQ1] ([1]; Pou5f1) | Brd4 signal at Pou5f1 upon inhibition [2] | Hill equation n, relative Brd4 signal at Pou5f1 vs. [JQ1] ([2]; Pou5f1) | Sox2 clustering at Pou5f1 upon transcription inhibition [3]
Cc1sc2c(c1C)C(c1ccc(Cl)cc1)=N[C@@H](CC(=O)OC(C)(C)C)c1nnc(C)n1-2 [JQ1] | drop sharply; also recorded: drop close to noise-floor | 0.8±0.1 | drop sharply | 1.3±0.3 | persists
CN1CC[C@H](c2c(O)cc(O)c3c(=O)cc(-c4ccccc4Cl)oc23)[C@H](O)C1 [flavopiridol] | not lost |  | not lost |  | persists
